Consider two molecules from patent US20260248752A1, “Oral Care Product And Methods Of Use And Manufacture Thereof” (Colgate-Palmolive Company, priority 2019, published 2026).

Common to all, as to format: cell-based, Streptococcus mutans
One experiment deals with S. mutans. In words: Growth inhibition of S. mutans in culture by neat solutions of xylitol and/or arginine. The settings on record: 24 hours after administration of neat solutions, absence of added sucrose. How it is done: The ability of xylitol to inhibit the growth of S. mutans is tested in combination with arginine in culture. Percent growth inhibition is measured at 24 hours after administration of the neat solutions listed in the below table.
Results in Table 2 are obtained in the absence of added sucrose.

Experiment [1] concerns S. mutans biofilm. In words: pH drop of S. mutans biofilm from glycolysis (total AUC of delta pH). The settings on record: for Total AUC of Δ pH: after 24 hours of exposure and addition of growth media, lower AUC = less pH reduction; for Δ (vs control) of total AUC of Δ pH: difference from control (no arginine or xylitol) AUC 29.5. The source says: Such drops in pH can be harmful to the health of the oral cavity.

The test system of a further experiment is planktonic S. mutans. Kind of experiment: Minimum inhibitory concentration of xylitol, planktonic S. mutans growth (OD 610 nm). The settings on record: for growth of S. mutans, optical density (OD 610 nm), mean: 24 hours of exposure. How it is done:
Determining Minimum Inhibitory Concentration (MIC) of Xylitol: In a separate experiment, simple solutions with only xylitol at varying concentrations, tested in combination with a control, are also tested to determine the minimum inhibitor concentration of xylitol needed to inhibit planktonic S. mutans growth in culture.

Experiment [2] has as its system S. mutans biofilm. In words: S. mutans biofilm formation by crystal violet staining (OD 590 nm). The following applies: for S. mutans biofilm formation, crystal violet staining (OD 590 nm), mean: 24 hours of exposure. The method, then:
Determining Biofilm Formation with varying amounts of Xylitol: In a separate experiment, simple solutions with only xylitol at varying concentrations, tested in combination with a control, are also tested to determine the minimum amount of xylitol needed to prevent S. mutans biofilm accretion in culture. It is determined that at least 5% xylitol is necessary to inhibit biofilm accretion in culture after 24 hours of exposure.

The mark [3] stands for this setting: in culture after 24 hours of exposure.

For `N=C(N)NCCC[C@H](N)C(=O)O` [1.5% arginine, arginine], the “% growth inhibition relative to control” value with S. mutans stood at 4.1%. Further, in the experiment with S. mutans biofilm [1], the “Total AUC of Δ pH” value is reported as 28.9 and the “Δ (vs control) of total AUC of Δ pH” value was 0.6.

`OC[C@@H](O)[C@H](O)[C@@H](O)CO` [Xylitol]: the “% growth inhibition relative to control” value turned out to be 17.9% in the experiment with S. mutans (listed as 1% xylitol), 40.3% with S. mutans (listed as 5% xylitol) and 45.6% in the experiment with S. mutans (listed as 10% xylitol). Besides, the “minimum inhibitory concentration of xylitol needed to inhibit planktonic S. mutans growth” value in the experiment with planktonic S. mutans (setting [3]) is recorded as “at least 10%”. In addition, the “growth of S. mutans, optical density (OD 610 nm), mean” value with planktonic S. mutans (xylitol 0.15625%) was 0.256; in the experiment with planktonic S. mutans (xylitol 0.3125%), 0.268; in the experiment with planktonic S. mutans (xylitol 0.625%) it was 0.241; in the experiment on planktonic S. mutans (xylitol 1.25%), 0.188; in the experiment with planktonic S. mutans (xylitol 2.5%), 0.165; in the experiment with planktonic S. mutans (xylitol 5%), 0.114. Moreover, the “growth of S. mutans, optical density (OD 610 nm), mean” value in the experiment on planktonic S. mutans (xylitol 10%) is 0.097; in the experiment with planktonic S. mutans (xylitol 20%), 0.089; in the experiment on planktonic S. mutans (xylitol 40%) it was 0.071. For the same molecule, in the experiment with S. mutans biofilm [2] (setting [3]), the “minimum amount of xylitol needed to prevent S. mutans biofilm accretion” value is “at least 5%”. The “S. mutans biofilm formation, crystal violet staining (OD 590 nm), mean” value is listed as 0.327 in the experiment with S. mutans biofilm [2] (xylitol 0.15625%); 0.338 with S. mutans biofilm [2] (xylitol 0.3125%); 0.301 with S. mutans biofilm [2] (xylitol 0.625%); 0.254 with S. mutans biofilm [2] (xylitol 1.25%); 0.221 with S. mutans biofilm [2] (xylitol 2.5%); 0.136 in the experiment with S. mutans biofilm [2] (xylitol 5%). Moreover, the “S. mutans biofilm formation, crystal violet staining (OD 590 nm), mean” value is 0.122 in the experiment with S. mutans biofilm [2] (xylitol 10%), 0.123 in the experiment with S. mutans biofilm [2] (xylitol 20%) and 0.109 in the experiment with S. mutans biofilm [2] (xylitol 40%). Also, the “Total AUC of Δ pH” value was found to be 27.8 in the experiment on S. mutans biofilm [1] (listed as 1% xylitol), 25.3 with S. mutans biofilm [1] (listed as 5% xylitol) and 24.0 in the experiment with S. mutans biofilm [1] (listed as 10% xylitol). Also, the results for the “Δ (vs control) of total AUC of Δ pH” value in the experiment with S. mutans biofilm [1] (listed as 1% xylitol), with S. mutans biofilm [1] (listed as 5% xylitol) and in the experiment on S. mutans biofilm [1] (listed as 10% xylitol) were 1.7, 4.2 and 5.5, respectively.
